{"source": "PubChem BioAssay AID220", "about": "(DTP/NCI, 2004)", "test_system": "CD8F1 mice, subcutaneous mammary adenocarcinoma, T/C%", "experiment": "NCI In Vivo Anticancer Drug Screen. Data for tumor model Mammary Adenocarcinoma CD8F1 (subcutaneous) in CD8F1", "conditions": "higher = larger tumour", "how_it_was_run": "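Ratio of treated to vehicle-control outcome, based on either survival or tumor size, in mice bearing transplantable tumors given the test compound.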", "key": {"[1]": {"conditions": "endpoint: median tumor weight change, dose: 125.0 mg/kg/injection, schedule: Q01DX001 (ip), vehicle: saline"}, "[2]": {"conditions": "endpoint: median tumor weight change, dose: 200.0 mg/kg/injection, schedule: Q01DX001 (ip), vehicle: saline"}, "[3]": {"conditions": "endpoint: median tumor weight change, dose: 400.0 mg/kg/injection, schedule: Q01DX001 (ip), vehicle: saline"}}, "note": "Where “and” joins values, the source holds several entries; their conditions need not be identical. Equal values may be shown once. Results filed as inconclusive are left out.", "data": [{"smiles": "COc1cc2cc(c1Cl)N(C)C(=O)C[C@H](OC(=O)[C@H](C)N(C)C(C)=O)[C@]1(C)O[C@H]1[C@H](C)[C@@H]1C[C@@](O)(NC(=O)O1)[C@H](OC)C=C/C=C(\\C)C2", "values": [{"measurement": "T/C", "setting": "endpoint: median tumor weight (est.), dose: 0.03 mg/kg/injection, schedule: Q07DX005 (ip), vehicle: Klucel (hydroxypropylcellulose) (HPC)", "value": "167 % of control"}, {"measurement": "T/C", "setting": "endpoint: median tumor weight (est.), dose: 0.06 mg/kg/injection, schedule: Q07DX005 (ip), vehicle: Klucel (hydroxypropylcellulose) (HPC)", "value": "151 % of control"}, {"measurement": "T/C", "setting": "endpoint: median tumor weight (est.), dose: 0.12 mg/kg/injection, schedule: Q07DX005 (ip), vehicle: Klucel (hydroxypropylcellulose) (HPC)", "value": "264 % of control"}, {"measurement": "T/C", "setting": "endpoint: median tumor weight (est.), dose: 0.25 mg/kg/injection, schedule: Q07DX005 (ip), vehicle: Klucel (hydroxypropylcellulose) (HPC)", "value": "188 % of control"}, {"measurement": "T/C", "setting": "endpoint: median tumor weight (est.), dose: 62.0 micrograms/kg/injection, schedule: Q07DX005 (ip), vehicle: Klucel (hydroxypropylcellulose) (HPC)", "value": "54 % of control"}, {"measurement": "T/C", "setting": "endpoint: median tumor weight (est.), dose: 125.0 micrograms/kg/injection, schedule: Q07DX005 (ip), vehicle: Klucel (hydroxypropylcellulose) (HPC)", "value": "77 % of control"}, {"measurement": "T/C", "setting": "endpoint: median tumor weight (est.), dose: 250.0 micrograms/kg/injection, schedule: Q07DX005 (ip), vehicle: Klucel (hydroxypropylcellulose) (HPC)", "value": "110 % of control"}, {"measurement": "T/C", "setting": "endpoint: median tumor weight (est.), dose: 500.0 micrograms/kg/injection, schedule: Q07DX005 (ip), vehicle: Klucel (hydroxypropylcellulose) (HPC)", "value": "93 % of control"}, {"measurement": "T/C", "setting": "endpoint: median tumor weight change, dose: 125.0 micrograms/kg/injection, schedule: Q01DX001 (ip), vehicle: Klucel (hydroxypropylcellulose) (HPC)", "value": "67 % of control"}, {"measurement": "T/C", "setting": "endpoint: median tumor weight change, dose: 500.0 micrograms/kg/injection, schedule: Q01DX001 (ip), vehicle: Klucel (hydroxypropylcellulose) (HPC)", "value": "29 % of control and 35 % of control"}, {"measurement": "T/C", "setting": "endpoint: median tumor weight change, dose: 1000.0 micrograms/kg/injection, schedule: Q01DX001 (ip), vehicle: Klucel (hydroxypropylcellulose) (HPC)", "value": "3 % of control and 21 % of control"}, {"measurement": "T/C", "setting": "endpoint: median tumor weight change, dose: 2000.0 micrograms/kg/injection, schedule: Q01DX001 (ip), vehicle: Klucel (hydroxypropylcellulose) (HPC)", "value": "12 % of control"}]}, {"smiles": "C=CC(=O)N1CN(C(=O)C=C)CN(C(=O)C=C)C1", "values": [{"measurement": "T/C", "setting": "endpoint: median tumor weight (est.), dose: 3.12 mg/kg/injection, schedule: Q07DX005 (ip), vehicle: saline with Tween-80", "value": "89 % of control"}, {"measurement": "T/C", "setting": "endpoint: median tumor weight (est.), dose: 6.25 mg/kg/injection, schedule: Q07DX005 (ip), vehicle: saline with Tween-80", "value": "111 % of control"}, {"measurement": "T/C", "setting": "endpoint: median tumor weight (est.), dose: 12.5 mg/kg/injection, schedule: Q07DX005 (ip), vehicle: saline with Tween-80", "value": "31 % of control"}]}, {"smiles": "N/C(=N\\OC(=O)Nc1ccc(CSc2ccc(Cl)cc2)o1)c1ccccn1", "values": [{"measurement": "T/C", "setting": "endpoint: median tumor weight change, dose: 62.0 mg/kg/injection, schedule: Q01DX001 (ip), vehicle: Klucel (hydroxypropylcellulose) (HPC)", "value": "64 % of control"}, {"measurement": "T/C", "setting": "endpoint: median tumor weight change, dose: 125.0 mg/kg/injection, schedule: Q01DX001 (ip), vehicle: Klucel (hydroxypropylcellulose) (HPC)", "value": "99 % of control"}, {"measurement": "T/C", "setting": "endpoint: median tumor weight change, dose: 250.0 mg/kg/injection, schedule: Q01DX001 (ip), vehicle: Klucel (hydroxypropylcellulose) (HPC)", "value": "80 % of control"}]}, {"smiles": "NC1=NC(=O)N2CC12", "note": "(stereo not drawn)", "values": [{"measurement": "T/C", "setting": "[1]", "value": "115 % of control"}, {"measurement": "T/C", "setting": "endpoint: median tumor weight change, dose: 250.0 mg/kg/injection, schedule: Q01DX001 (ip), vehicle: saline", "value": "122 % of control"}]}, {"smiles": "CC(=O)N(C)c1ccc(Nc2cc(C)[nH]c3ccc4ncnc4c23)cc1", "values": [{"measurement": "T/C", "setting": "[1]", "value": "34 % of control and 46 % of control"}]}, {"smiles": "CC1=C(C)C(=O)O[C@@H]([C@](C)(O)[C@]2(O)CC[C@@]3(O)[C@@H]4C[C@H]5O[C@]56CC=CC(=O)[C@]6(C)[C@H]4CC[C@]23C)C1", "values": [{"measurement": "T/C", "setting": "endpoint: median tumor weight change, dose: 25.0 mg/kg/injection, schedule: Q01DX001 (ip), vehicle: saline", "value": "91 % of control"}, {"measurement": "T/C", "setting": "endpoint: median tumor weight change, dose: 50.0 mg/kg/injection, schedule: Q01DX001 (ip), vehicle: saline", "value": "98 % of control"}, {"measurement": "T/C", "setting": "[2]", "value": "69 % of control"}, {"measurement": "T/C", "setting": "[3]", "value": "82 % of control"}]}, {"smiles": "COC1=C(C)C(=O)C2=C(C1=O)C(CO)N1C(C#N)C3CC4C(C1C2N1CCOC41)N3C", "note": "(stereo not drawn)", "values": [{"measurement": "T/C", "setting": "endpoint: median tumor weight change, dose: 0.62 mg/kg/injection, schedule: Q01DX001 (ip), vehicle: saline + alcohol", "value": "120 % of control"}, {"measurement": "T/C", "setting": "endpoint: median tumor weight change, dose: 1.25 mg/kg/injection, schedule: Q01DX001 (ip), vehicle: saline + alcohol", "value": "98 % of control and 107 % of control and 116 % of control"}]}, {"smiles": "COC1=C(NC(C)=O)C(=O)c2nc(-c3nc(C(=O)O)c(C)c(-c4ccc(OC)c(OC)c4O)c3N)ccc2C1=O", "values": [{"measurement": "T/C", "setting": "endpoint: median tumor weight change, dose: 12.5 mg/kg/injection, schedule: Q01DX001 (ip), vehicle: Klucel (hydroxypropylcellulose) (HPC)", "value": "171 % of control"}]}, {"smiles": "CCC(C)C(=O)OC1C(=O)OC2CC3C(C)=CC(=O)C(O)C3(C)C3C4(O)OCC23C1C(C)C4O", "note": "(stereo not drawn)", "values": [{"measurement": "T/C", "setting": "endpoint: median tumor weight (est.), dose: 0.5 mg/kg/injection, schedule: Q07DX005 (ip), vehicle: saline", "value": "70 % of control"}, {"measurement": "T/C", "setting": "endpoint: median tumor weight (est.), dose: 1.0 mg/kg/injection, schedule: Q07DX005 (ip), vehicle: saline with Tween-80", "value": "237 % of control"}, {"measurement": "T/C", "setting": "endpoint: median tumor weight (est.), dose: 1.0 mg/kg/injection, schedule: Q07DX005 (ip), vehicle: saline", "value": "95 % of control"}, {"measurement": "T/C", "setting": "endpoint: median tumor weight (est.), dose: 2.0 mg/kg/injection, schedule: Q07DX005 (ip), vehicle: saline", "value": "70 % of control"}, {"measurement": "T/C", "setting": "endpoint: median tumor weight (est.), dose: 4.0 mg/kg/injection, schedule: Q07DX005 (ip), vehicle: saline with Tween-80", "value": "165 % of control"}, {"measurement": "T/C", "setting": "endpoint: median tumor weight (est.), dose: 4.0 mg/kg/injection, schedule: Q07DX005 (ip), vehicle: saline", "value": "74 % of control"}]}, {"smiles": "NC(Cn1ccc(=O)c(O)c1)C(=O)O", "note": "(stereo not drawn)", "values": [{"measurement": "T/C", "setting": "endpoint: median tumor weight change, dose: 100.0 mg/kg/injection, schedule: Q01DX001 (ip), vehicle: saline", "value": "82 % of control"}, {"measurement": "T/C", "setting": "[2]", "value": "69 % of control"}, {"measurement": "T/C", "setting": "[3]", "value": "52 % of control"}, {"measurement": "T/C", "setting": "endpoint: median tumor weight change, dose: 1600.0 mg/kg/injection, schedule: Q01DX001 (ip), vehicle: saline", "value": "72 % of control"}]}]}
